Test results reported in publication PMC10118748 (Science translational medicine, 2022).

Experiments:
[1] = 10 mM DTT vs PBS
cynomolgus PD-L1 = details: flow staining of SDGF-PDL1B1G1-expressing cells
[2] = ref [58]; cited from earlier work
PC3 tumors [3] = details: cohort 2, ATC + durvalumab, 1 or 0.1 nmol/dose
murine PD-L1 = details: ref [47]; cited from earlier work
PC3 tumors [4] = details: 14 days after treatment, 1 nmol + ATC (fig. S10)

CC[C@H](C)[C@@H]1NC(=O)[C@H](CCCNC(=N)N)NC(=O)[C@H](CCC(=O)O)NC(=O)[C@H](C)NC(=O)[C@@H]2CSSC[C@H](NC(=O)[C@H](Cc3c[nH]cn3)NC(=O)[C@H](C)NC(=O)[C@H](CCCNC(=N)N)NC(=O)CNC(=O)[C@H]([C@@H](C)CC)NC(=O)[C@H]([C@@H](C)O)NC(=O)[C@H](Cc3ccc(O)cc3)NC(=O)[C@H](CO)NC(=O)[C@H](CCCCN)NC1=O)C(=O)N[C@@H](CO)C(=O)NCC(=O)N[C@@H](CCC(N)=O)C(=O)N[C@@H](Cc1ccc(O)cc1)C(=O)N[C@@H](Cc1ccccc1)C(=O)N[C@@H](CC(=O)O)C(=O)N[C@@H](C(C)C)C(=O)N[C@@H](Cc1c[nH]c3ccccc13)C(=O)N[C@@H](CCCCN)C(=O)N[C@H]1CSSC[C@H](NC(=O)[C@H](Cc3c[nH]cn3)NC(=O)[C@H](C(C)C)NC(=O)[C@H](CCCCN)NC(=O)[C@@H](NC(=O)[C@H](CC(=O)O)NC(=O)[C@H](CCC(=O)O)NC(=O)[C@H](CCC(=O)O)NC(=O)[C@H](CO)NC(=O)CN)CSSC[C@@H](C(=O)N[C@@H](C)C(=O)N[C@@H](C)C(=O)N3CCC[C@H]3C(=O)O)NC(=O)[C@H](Cc3c[nH]cn3)NC(=O)[C@H](CC(=O)O)NC(=O)[C@H](CC(C)C)NC1=O)C(=O)N[C@@H](C(C)C)C(=O)N[C@@H](CCCCN)C(=O)N[C@@H](CCC(=O)O)C(=O)N[C@@H](Cc1c[nH]c3ccccc13)C(=O)N[C@@H](C)C(=O)N[C@@H](C)C(=O)N[C@@H](Cc1ccc(O)cc1)C(=O)N[C@@H](CCCCN)C(=O)N[C@@H](C)C(=O)N2 [PDL1B1G1]
RP-HPLC mobility shift upon reduction [1]: substantial mobility shift
binding to cynomolgus PD-L1 relative to murine PD-L1 (cynomolgus PD-L1): stronger than seen with murine PD-L1

atezolizumab
linked adverse effect [2]: Type 1 diabetes has been reported

durvalumab
tumor growth suppression (PC3 tumors [3]): No tumor growth suppression
murine cross-reactivity (murine PD-L1): non-murine-cross-reactive
ATC infiltration and activation in tumor (human CD8, granzyme B) (PC3 tumors [4]): recruitment of trace numbers of ATCs infiltrating the tumor
